# Earlier results, collected in patent US20260048046A1, “METHOD FOR IMPROVING GROWTH PERFORMANCE IN FEEDLOT CATTLE” (Elanco US Inc., priority 2022, published 2026).
# Read-outs that look alike come from different tables or passages of the source.
# Test system: cattle
# Conditions: zilpaterol 8.3 mg/kg diet DM, Holland et al. (2010), cited from earlier work
compound,measurement,setting,value
CC(C)NC1CCn2c(=O)[nH]c3cccc(c32)C1O (centres unmarked) [zilpaterol],Difference in HCW between zilpaterol fed and non-treated cattle,3 d removal prior to harvest,14 kg
same,Difference in HCW between zilpaterol fed and non-treated cattle,10 d removal prior to harvest,17 kg
same,Difference in HCW between zilpaterol fed and non-treated cattle,17 d removal prior to harvest,5 kg
same,Difference in HCW between zilpaterol fed and non-treated cattle,24 d removal prior to harvest,6 kg
same,"Final and carcass-adjusted final BW, effect of feeding zilpaterol",P≥0.14,not affected
